In ChEMBL document CHEMBL4507267 (2021):

Key:
[1] = target: Phosphatidylinositol 4,5-bisphosphate 3-kinase catalytic subunit alpha isoform (Homo sapiens) (UniProt P42336); conditions: Compound concentration 1000.0 nM
[2] = target: Protein-tyrosine kinase 6 (Homo sapiens) (UniProt Q13882); conditions: Compound concentration 1000.0 nM
[3] = target: Insulin receptor (Homo sapiens) (UniProt P06213); conditions: Compound concentration 1000.0 nM
[4] = target: Tyrosine-protein kinase JAK1 (Homo sapiens) (UniProt P23458); conditions: Compound concentration 1000.0 nM
[5] = target: TRAF2 and NCK-interacting protein kinase (Homo sapiens) (UniProt Q9UKE5); conditions: Compound concentration 1000.0 nM
[6] = target: Testis-specific serine/threonine-protein kinase 3 (Homo sapiens) (UniProt Q96PN8); conditions: Compound concentration 1000.0 nM
[7] = target: Serine/threonine-protein kinase 32C (Homo sapiens) (UniProt Q86UX6); conditions: Compound concentration 1000.0 nM
[8] = target: RAC-beta serine/threonine-protein kinase (Homo sapiens) (UniProt P31751); conditions: Compound concentration 1000.0 nM
[9] = target: Death-associated protein kinase 1 (Homo sapiens) (UniProt P53355); conditions: Compound concentration 1000.0 nM
[10] = target: 5-hydroxytryptamine receptor 1A (Homo sapiens) (UniProt P08908); conditions: Compound concentration 10.0 uM
[11] = target: Serine/threonine-protein kinase Nek5 (Homo sapiens) (UniProt Q6P3R8); conditions: Compound concentration 1000.0 nM
[12] = target: Tyrosine-protein kinase Yes (Homo sapiens) (UniProt P07947); conditions: Compound concentration 1000.0 nM
[13] = target: Ephrin type-A receptor 5 (Homo sapiens) (UniProt P54756); conditions: Compound concentration 1000.0 nM
[14] = target: Serine/threonine-protein kinase NLK (Homo sapiens) (UniProt Q9UBE8); conditions: Compound concentration 1000.0 nM
[15] = target: Tyrosine-protein kinase Fes/Fps (Homo sapiens) (UniProt P07332); conditions: Compound concentration 1000.0 nM
[16] = target: Calcium/calmodulin-dependent protein kinase kinase 1 (Homo sapiens) (UniProt Q8N5S9); conditions: Compound concentration 1000.0 nM
[17] = target: Mitogen-activated protein kinase kinase kinase 19 (Homo sapiens) (UniProt Q56UN5); conditions: Compound concentration 1000.0 nM
[18] = target: Glycogen synthase kinase-3 alpha (Homo sapiens) (UniProt P49840); conditions: Compound concentration 1000.0 nM
[19] = target: Homeodomain-interacting protein kinase 4 (Homo sapiens) (UniProt Q8NE63); conditions: Compound concentration 1000.0 nM
[20] = target: Alpha-2B adrenergic receptor (Homo sapiens) (UniProt P18089); conditions: Compound concentration 10.0 uM
[21] = target: Serine/threonine-protein kinase 38 (Homo sapiens) (UniProt Q15208); conditions: Compound concentration 1000.0 nM
[22] = target: Ribosomal protein S6 kinase alpha-5 (Homo sapiens) (UniProt O75582); conditions: Compound concentration 1000.0 nM
[23] = test system: Receptor-type tyrosine-protein kinase FLT3 (Homo sapiens), P36888 [D835Y]; conditions: Compound concentration 1000.0 nM
[24] = target: Serine/threonine-protein kinase TBK1 (Homo sapiens) (UniProt Q9UHD2); conditions: Compound concentration 1000.0 nM
[25] = target: Alpha-1D adrenergic receptor (Homo sapiens) (UniProt P25100); conditions: Compound concentration 10.0 uM
[26] = target: Serine/threonine-protein kinase MAK (Homo sapiens) (UniProt P20794); conditions: Compound concentration 1000.0 nM
[27] = target: Serine/threonine-protein kinase PAK 5 (Homo sapiens) (UniProt Q9P286); conditions: Compound concentration 1000.0 nM
[28] = target: Mitogen-activated protein kinase kinase kinase 5 (Homo sapiens) (UniProt Q99683); conditions: Compound concentration 1000.0 nM
[29] = target: STE20/SPS1-related proline-alanine-rich protein kinase (Homo sapiens) (UniProt Q9UEW8); conditions: Compound concentration 1000.0 nM
[30] = target: Microtubule-associated serine/threonine-protein kinase 1 (Homo sapiens) (UniProt Q9Y2H9); conditions: Compound concentration 1000.0 nM
[31] = target: Mitogen-activated protein kinase kinase kinase 12 (Homo sapiens) (UniProt Q12852); conditions: Compound concentration 1000.0 nM
[32] = target: Casein kinase I isoform epsilon (Homo sapiens) (UniProt P49674); conditions: Compound concentration 1000.0 nM
[33] = test system: Receptor-type tyrosine-protein kinase FLT3 (Homo sapiens), P36888 [D835H]; conditions: Compound concentration 1000.0 nM
[34] = target: Beta-adrenergic receptor kinase 1 (Homo sapiens) (UniProt P25098); conditions: Compound concentration 1000.0 nM
[35] = target: Protein kinase C theta type (Homo sapiens) (UniProt Q04759); conditions: Compound concentration 1000.0 nM
[36] = target: Serine/threonine-protein kinase RIO1 (Homo sapiens) (UniProt Q9BRS2); conditions: Compound concentration 1000.0 nM
[37] = test system: Mast/stem cell growth factor receptor Kit (Homo sapiens), P10721 [D816H]; conditions: Compound concentration 1000.0 nM
[38] = target: Receptor tyrosine-protein kinase erbB-2 (Homo sapiens) (UniProt P04626); conditions: Compound concentration 1000.0 nM
[39] = target: Phosphatidylinositol 4-phosphate 5-kinase type-1 alpha (Homo sapiens) (UniProt Q99755); conditions: Compound concentration 1000.0 nM
[40] = target: MAP kinase-activated protein kinase 2 (Homo sapiens) (UniProt P49137); conditions: Compound concentration 1000.0 nM
[41] = target: Dual specificity protein kinase CLK1 (Homo sapiens) (UniProt P49759); conditions: Compound concentration 1000.0 nM
[42] = target: Serine/threonine-protein kinase tousled-like 2 (Homo sapiens) (UniProt Q86UE8); conditions: Compound concentration 1000.0 nM
[43] = target: Serine/threonine-protein kinase VRK2 (Homo sapiens) (UniProt Q86Y07); conditions: Compound concentration 1000.0 nM
[44] = target: Mitogen-activated protein kinase 13 (Homo sapiens) (UniProt O15264); conditions: Compound concentration 1000.0 nM
[45] = target: Casein kinase I isoform gamma-2 (Homo sapiens) (UniProt P78368); conditions: Compound concentration 1000.0 nM

Sequence of Mitogen-activated protein kinase kinase kinase 5 (Homo sapiens) (Q99683 whole entry): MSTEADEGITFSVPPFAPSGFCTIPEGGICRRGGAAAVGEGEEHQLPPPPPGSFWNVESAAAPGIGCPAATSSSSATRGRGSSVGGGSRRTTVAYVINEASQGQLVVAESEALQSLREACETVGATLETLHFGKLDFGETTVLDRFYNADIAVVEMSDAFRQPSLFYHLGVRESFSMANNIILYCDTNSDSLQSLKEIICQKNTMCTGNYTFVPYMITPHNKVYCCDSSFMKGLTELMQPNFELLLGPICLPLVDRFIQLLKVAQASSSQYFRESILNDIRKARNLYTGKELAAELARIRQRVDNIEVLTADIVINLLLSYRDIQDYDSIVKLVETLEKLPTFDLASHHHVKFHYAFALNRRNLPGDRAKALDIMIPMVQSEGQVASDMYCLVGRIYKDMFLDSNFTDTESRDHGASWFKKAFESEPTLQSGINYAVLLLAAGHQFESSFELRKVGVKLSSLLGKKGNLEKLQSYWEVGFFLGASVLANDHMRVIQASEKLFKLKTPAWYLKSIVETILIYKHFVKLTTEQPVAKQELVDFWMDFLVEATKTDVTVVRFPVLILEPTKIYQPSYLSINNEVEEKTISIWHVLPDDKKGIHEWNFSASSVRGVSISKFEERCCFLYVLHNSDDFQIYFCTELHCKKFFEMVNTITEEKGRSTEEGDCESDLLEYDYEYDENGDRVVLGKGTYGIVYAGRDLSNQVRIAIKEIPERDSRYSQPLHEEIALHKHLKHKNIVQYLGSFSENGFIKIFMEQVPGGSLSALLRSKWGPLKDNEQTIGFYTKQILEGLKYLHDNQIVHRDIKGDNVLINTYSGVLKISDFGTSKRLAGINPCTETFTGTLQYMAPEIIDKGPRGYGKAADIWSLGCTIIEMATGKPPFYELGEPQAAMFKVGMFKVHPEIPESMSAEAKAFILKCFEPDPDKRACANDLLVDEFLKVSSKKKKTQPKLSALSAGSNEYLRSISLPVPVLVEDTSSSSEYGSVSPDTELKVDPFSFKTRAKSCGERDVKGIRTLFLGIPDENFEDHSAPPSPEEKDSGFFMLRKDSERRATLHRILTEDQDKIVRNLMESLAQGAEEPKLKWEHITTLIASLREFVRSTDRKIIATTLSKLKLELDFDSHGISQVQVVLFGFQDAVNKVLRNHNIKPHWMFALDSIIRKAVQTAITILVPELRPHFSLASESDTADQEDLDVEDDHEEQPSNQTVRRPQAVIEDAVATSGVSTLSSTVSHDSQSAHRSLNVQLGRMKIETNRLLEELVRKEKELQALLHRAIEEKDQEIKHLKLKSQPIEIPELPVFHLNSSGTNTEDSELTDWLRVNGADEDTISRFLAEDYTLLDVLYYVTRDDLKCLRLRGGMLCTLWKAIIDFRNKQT
Sequence of Alpha-1D adrenergic receptor (Homo sapiens) (P25100 whole entry): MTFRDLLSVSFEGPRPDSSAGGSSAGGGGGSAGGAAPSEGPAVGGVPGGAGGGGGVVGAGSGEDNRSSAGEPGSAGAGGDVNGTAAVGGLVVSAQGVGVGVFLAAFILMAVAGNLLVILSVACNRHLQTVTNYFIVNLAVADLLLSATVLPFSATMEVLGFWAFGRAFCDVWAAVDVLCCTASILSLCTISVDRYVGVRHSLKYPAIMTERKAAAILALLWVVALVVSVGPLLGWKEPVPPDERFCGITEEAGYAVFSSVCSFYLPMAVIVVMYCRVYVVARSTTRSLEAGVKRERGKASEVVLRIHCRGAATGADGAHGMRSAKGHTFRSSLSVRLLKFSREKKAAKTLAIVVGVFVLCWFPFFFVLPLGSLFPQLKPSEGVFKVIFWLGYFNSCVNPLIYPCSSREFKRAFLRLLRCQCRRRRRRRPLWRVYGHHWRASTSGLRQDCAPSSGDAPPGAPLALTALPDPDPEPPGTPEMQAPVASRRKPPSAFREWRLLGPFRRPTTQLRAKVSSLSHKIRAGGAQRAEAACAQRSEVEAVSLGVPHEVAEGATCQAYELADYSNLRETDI
Sequence of Beta-adrenergic receptor kinase 1 (Homo sapiens) (P25098 whole entry): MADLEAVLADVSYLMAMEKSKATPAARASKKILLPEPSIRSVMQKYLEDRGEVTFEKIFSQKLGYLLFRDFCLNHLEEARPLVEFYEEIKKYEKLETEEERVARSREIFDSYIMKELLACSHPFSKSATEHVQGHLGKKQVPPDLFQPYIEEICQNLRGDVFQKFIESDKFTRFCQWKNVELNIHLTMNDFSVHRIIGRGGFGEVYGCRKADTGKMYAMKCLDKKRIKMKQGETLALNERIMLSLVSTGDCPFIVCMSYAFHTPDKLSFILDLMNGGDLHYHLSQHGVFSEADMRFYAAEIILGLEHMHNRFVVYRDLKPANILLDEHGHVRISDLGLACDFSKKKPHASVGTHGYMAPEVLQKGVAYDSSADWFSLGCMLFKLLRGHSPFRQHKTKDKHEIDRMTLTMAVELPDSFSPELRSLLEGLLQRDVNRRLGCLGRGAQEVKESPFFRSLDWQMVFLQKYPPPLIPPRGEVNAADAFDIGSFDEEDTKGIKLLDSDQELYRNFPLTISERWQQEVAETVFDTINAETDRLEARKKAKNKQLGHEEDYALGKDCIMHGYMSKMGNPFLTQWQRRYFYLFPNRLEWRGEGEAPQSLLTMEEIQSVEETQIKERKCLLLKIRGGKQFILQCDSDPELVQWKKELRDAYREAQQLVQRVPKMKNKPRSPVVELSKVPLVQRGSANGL
Sequence of Tyrosine-protein kinase Yes (Homo sapiens) (P07947 2-543 limits assumed): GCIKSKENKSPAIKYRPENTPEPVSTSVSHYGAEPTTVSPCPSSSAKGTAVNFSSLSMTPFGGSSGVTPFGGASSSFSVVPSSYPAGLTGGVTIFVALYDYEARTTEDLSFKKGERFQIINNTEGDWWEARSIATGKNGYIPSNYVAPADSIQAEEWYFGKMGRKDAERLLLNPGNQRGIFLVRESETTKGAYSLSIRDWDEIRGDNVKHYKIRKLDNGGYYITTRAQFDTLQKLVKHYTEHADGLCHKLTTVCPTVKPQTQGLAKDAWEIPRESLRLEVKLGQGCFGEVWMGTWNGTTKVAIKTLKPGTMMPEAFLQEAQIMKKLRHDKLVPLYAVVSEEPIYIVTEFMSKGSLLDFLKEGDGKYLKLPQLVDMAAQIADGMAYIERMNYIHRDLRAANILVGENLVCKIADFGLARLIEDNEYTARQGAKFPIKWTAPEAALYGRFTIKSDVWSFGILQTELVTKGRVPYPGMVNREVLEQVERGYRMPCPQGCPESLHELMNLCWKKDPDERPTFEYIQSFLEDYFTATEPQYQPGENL
Sequence of TRAF2 and NCK-interacting protein kinase (Homo sapiens) (Q9UKE5 whole entry, looked up): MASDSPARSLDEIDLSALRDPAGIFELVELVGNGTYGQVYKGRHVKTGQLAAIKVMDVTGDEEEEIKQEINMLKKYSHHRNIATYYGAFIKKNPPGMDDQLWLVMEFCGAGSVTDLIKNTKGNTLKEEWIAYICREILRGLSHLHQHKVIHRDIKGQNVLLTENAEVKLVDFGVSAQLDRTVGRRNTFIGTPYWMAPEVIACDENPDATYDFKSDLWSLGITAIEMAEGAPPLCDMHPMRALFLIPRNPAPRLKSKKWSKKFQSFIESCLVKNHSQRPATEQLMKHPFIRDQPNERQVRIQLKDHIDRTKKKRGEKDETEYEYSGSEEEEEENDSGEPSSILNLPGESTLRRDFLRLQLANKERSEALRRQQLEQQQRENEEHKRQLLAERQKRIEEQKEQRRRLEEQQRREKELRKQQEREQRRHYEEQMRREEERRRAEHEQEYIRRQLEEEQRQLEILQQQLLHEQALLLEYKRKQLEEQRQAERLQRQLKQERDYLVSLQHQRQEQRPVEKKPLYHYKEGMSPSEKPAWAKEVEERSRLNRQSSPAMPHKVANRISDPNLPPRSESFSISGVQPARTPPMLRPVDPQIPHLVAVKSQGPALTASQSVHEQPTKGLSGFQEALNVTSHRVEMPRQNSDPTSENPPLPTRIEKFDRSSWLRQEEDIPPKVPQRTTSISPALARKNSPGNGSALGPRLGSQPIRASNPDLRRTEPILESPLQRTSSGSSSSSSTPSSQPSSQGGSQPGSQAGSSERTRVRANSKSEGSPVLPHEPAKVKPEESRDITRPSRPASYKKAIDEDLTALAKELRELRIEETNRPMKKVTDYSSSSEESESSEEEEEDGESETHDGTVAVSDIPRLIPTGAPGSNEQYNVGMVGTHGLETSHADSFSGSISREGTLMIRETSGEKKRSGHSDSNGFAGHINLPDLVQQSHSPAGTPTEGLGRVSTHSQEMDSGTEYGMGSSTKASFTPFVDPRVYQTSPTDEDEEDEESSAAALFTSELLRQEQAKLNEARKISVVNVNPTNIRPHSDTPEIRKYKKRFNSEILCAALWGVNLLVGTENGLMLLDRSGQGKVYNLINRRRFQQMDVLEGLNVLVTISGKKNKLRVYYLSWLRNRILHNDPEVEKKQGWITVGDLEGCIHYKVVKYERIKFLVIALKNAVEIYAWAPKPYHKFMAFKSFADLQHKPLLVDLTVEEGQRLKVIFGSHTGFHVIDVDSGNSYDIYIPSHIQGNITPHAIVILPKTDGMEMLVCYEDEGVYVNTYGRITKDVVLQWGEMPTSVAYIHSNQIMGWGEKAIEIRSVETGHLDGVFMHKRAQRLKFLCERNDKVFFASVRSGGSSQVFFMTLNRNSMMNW
Sequence of Serine/threonine-protein kinase RIO1 (Homo sapiens) (Q9BRS2 whole entry): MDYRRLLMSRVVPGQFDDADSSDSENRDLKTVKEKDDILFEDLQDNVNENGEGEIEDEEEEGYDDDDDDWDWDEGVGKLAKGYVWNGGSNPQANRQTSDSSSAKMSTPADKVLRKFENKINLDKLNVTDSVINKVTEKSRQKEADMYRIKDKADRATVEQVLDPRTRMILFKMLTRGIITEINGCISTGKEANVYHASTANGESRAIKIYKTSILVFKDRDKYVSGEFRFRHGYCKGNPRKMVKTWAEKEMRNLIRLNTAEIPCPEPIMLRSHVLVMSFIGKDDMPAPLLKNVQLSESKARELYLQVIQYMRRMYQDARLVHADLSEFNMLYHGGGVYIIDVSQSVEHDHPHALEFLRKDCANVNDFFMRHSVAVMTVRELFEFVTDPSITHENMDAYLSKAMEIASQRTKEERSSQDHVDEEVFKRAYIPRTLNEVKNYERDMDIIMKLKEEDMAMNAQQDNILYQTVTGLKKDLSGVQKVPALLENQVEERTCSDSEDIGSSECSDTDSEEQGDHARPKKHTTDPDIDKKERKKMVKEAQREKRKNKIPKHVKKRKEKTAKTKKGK

## Cc1c(NC(=O)c2cc(C(N)=O)nc3cc(F)ccc23)c(C(F)(F)F)nn1Cc1ccc(C#N)cc1 [BAY-876]
[1]
  residual activity: 100%
[2]
  residual activity: 100%
[3]
  residual activity: 100%
[4]
  residual activity: 100%
[5]
  residual activity: 92%
[6]
  residual activity: 82%
[7]
  residual activity: 69%
[8]
  residual activity: 98%
[9]
  residual activity: 86%
[10]
  inhibition: -3.47%
[11]
  residual activity: 100%
[12]
  residual activity: 66%
[13]
  residual activity: 100%
[14]
  residual activity: 100%
[15]
  residual activity: 83%
[16]
  residual activity: 97%
[17]
  residual activity: 72%
[18]
  residual activity: 100%
[19]
  residual activity: 100%
[20]
  inhibition: 7.66%
[21]
  residual activity: 94%
[22]
  residual activity: 100%
[23]
  residual activity: 92%
[24]
  residual activity: 70%
[25]
  inhibition: 7.36%
[26]
  residual activity: 79%
[27]
  residual activity: 92%
[28]
  residual activity: 91%
[29]
  residual activity: 94%
[30]
  residual activity: 77%
[31]
  residual activity: 89%
[32]
  residual activity: 100%
[33]
  residual activity: 100%
[34]
  residual activity: 87%
[35]
  residual activity: 80%
[36]
  residual activity: 93%
[37]
  residual activity: 60%
[38]
  residual activity: 100%
[39]
  residual activity: 100%
[40]
  residual activity: 97%
[41]
  residual activity: 86%
[42]
  residual activity: 100%
[43]
  residual activity: 72%
[44]
  residual activity: 70%
[45]
  residual activity: 88%

## Cc1c(NC(=O)c2cc(C(N)=O)nc3cc(F)ccc23)c(C(F)(F)F)nn1Cc1ccc(C(C)(C)C)cc1 [BAY-588]
[1]
  residual activity: 100%
[2]
  residual activity: 100%
[3]
  residual activity: 100%
[4]
  residual activity: 100%
[5]
  residual activity: 98%
[6]
  residual activity: 100%
[7]
  residual activity: 100%
[8]
  residual activity: 98%
[9]
  residual activity: 100%
[10]
  inhibition: 18.6%
[11]
  residual activity: 100%
[12]
  residual activity: 100%
[13]
  residual activity: 74%
[14]
  residual activity: 100%
[15]
  residual activity: 100%
[16]
  residual activity: 98%
[17]
  residual activity: 85%
[18]
  residual activity: 98%
[19]
  residual activity: 88%
[20]
  inhibition: 15.6%
[21]
  residual activity: 93%
[22]
  residual activity: 89%
[23]
  residual activity: 100%
[24]
  residual activity: 95%
[25]
  inhibition: 2.92%
[26]
  residual activity: 85%
[27]
  residual activity: 100%
[28]
  residual activity: 100%
[29]
  residual activity: 100%
[30]
  residual activity: 100%
[31]
  residual activity: 100%
[32]
  residual activity: 91%
[33]
  residual activity: 79%
[34]
  residual activity: 100%
[35]
  residual activity: 91%
[36]
  residual activity: 93%
[37]
  residual activity: 100%
[38]
  residual activity: 92%
[39]
  residual activity: 100%
[40]
  residual activity: 100%
[41]
  residual activity: 62%
[42]
  residual activity: 100%
[43]
  residual activity: 95%
[44]
  residual activity: 49%
[45]
  residual activity: 100%
